These are literature values, as cited in US20220160619A1, “Effervescent Drug Formulations” (Complete Medical Solutions, LLC, priority 2020, published 2022).

The conditions of this data set: long-term metformin therapy in addition to dietary management.

With `CN(C)C(=N)N=C(N)N` [metformin], the “diabetic patients with cobalamin malabsorption” value is 30%.
